Earlier results as cited in patent US12668568B2, “Adamantanyl-substituted benzamide compounds and their use as P2X7 receptor antagonists” (The University of Sydney, priority 2018, dated 2026).

Conditions: literature log D7.4 values; cited from earlier work

Going from CC(C)=O [acetone] to Nc1ccccc1 [aniline], the “log D7.4 of calibration standards” value rises from −0.24 to 0.90.

In the case of c1ccc(N(c2ccccc2)c2ccccc2)cc1 [triphenylamine], the “log D7.4 of calibration standards” value is listed as 5.74.
